Key:
[1] = Plasma protein binding, equilibrium dialysis (rat); type: in vitro ADME; settings: pH 7.4, equilibrium dialysis 6 hours, read-out: PPB (rat), percent of unbound fraction
Experimental: Preparation of 100 mM sodium phosphate and 150 mM NaCl buffer (PBS). A basic solution was prepared by dissolving 14.2 g/L Na2HPO4 and 8.77 g/L NaCl in deionized water and the solution could be stored at 4° C. for up to 7 days. An acidic solution was prepared by dissolving 12.0 g/L NaH2PO4 and 8.77 g/L NaCl in deionized water and the solution could be stored at 4° C. for up to 7 days. The basic solution was titrated with the acidic solution to pH 7.4 and store at 4° C. for up to 7 days. pH was checked on the day of experiment and was adjusted if outside specification of 7.4±0.1.
Thawing of the frozen plasma (stored at −80° C.). Frozen plasma was thawed immediately at room temperature. The plasma was centrifuged at 3,220 g for 10 minutes to remove clots and supernatant was collected into a fresh tube. The pH of the plasma was checked and recorded. Note: a). Only use plasma that has been thawed no more than twice since arrival. b). Only use plasma within the range of pH 7 to pH 8.
Preparation of working solutions. The working solutions of test compound and control compound ketoconazole were prepared in DMSO at the concentration of 200 μM. And then 3 μL of working solutions was removed to mix with 597 μL of rat plasma to achieve a final concentration of 1 μM (0.5% DMSO). Plasma samples were vortexed thoroughly.
Preparation of dialysis membranes. The dialysis membranes were soaked in ultrapure water for 60 minutes to separate strips, then in 20% ethanol for 20 minutes, finally in dialysis buffer for 20 minutes.
Procedure for equilibrium dialysis. The dialysis apparatus was assembled according to the manufacturer's instruction. Each Cell was filled with 120 μL of spiked plasma sample and dialyzed against equal volume of dialysis buffer (PBS). The assay was performed in duplicate. The dialysis plate was sealed and incubated in an incubator at 37° C. with 5% CO2 at 100 rpm for 6 hours. At the end of incubation, seal was removed and 50 μL of samples from both buffer and plasma chambers were transferred to wells of a 96-well plate.
Procedure for sample preparation. […]

[2] = Hepatocyte stability (monkey); type: in vitro ADME; settings: 0.5×10^6 viable cells/mL
Experimental: 10 mM and 100 μM stock solutions of test compound(s) and a positive control were prepared in appropriate solvent (DMSO). In separate conical tubes, the 10 mM test compound and the positive control were diluted to 100 μM by combining 198 μL of 50% acetonitrile/50% water and 2 μL of 10 mM stock. The 100 μM test compound and the positive control were diluted to 30 μM by combining 140 μL of 50% acetonitrile/50% water and 60 μL of 100 μM stock solution. The 100 μM test compound and the positive control were diluted to 10 μM by combining 180 μL of 50% acetonitrile/50% water and 20 μL of 100 μM stock solution. The 100 μM test compound and the positive control were diluted to 3 μM by combining 194 μL of 50% acetonitrile/50% water and 6 μL of 100 μM stock solution.
Incubation medium (William's E Medium supplemented with GlutaMAX) and hepatocyte thawing medium was placed in a 37° C. water bath, and allowed to warm for at least 15 minutes prior to use. […]
Using AOPI staining solution, cells were counted and the viable cell density was determined. […]
All calculations were carried out using Microsoft Excel. Peak areas were determined from extracted ion chromatograms. […]
The in vitro half-life (in vitro t1/2) was determined from the slope value: in vitro t1/2=0.693/k

Structure (SMILES) | fraction unbound at 6 h, 1 μM [1] | Hepatocyte stability, Monkey [2] [μL/min/10^6 cells]
CC(C)(C)NC[C@H](O)c1cccc(C(F)(F)F)n1 [Compound 03-3] | 0.9 | 
CC(C)(C)NC[C@H](O)c1cccc(C#N)n1 [Compound 03-5, (S)-6-(2-(tert-butylamino)-1-hydroxyethyl)picolinonitrile] | 1 | 1.88
Cc1ncccc1[C@@H](O)CNC(C)(C)C [Compound 03-115] | 0.97 | 1.26
